One experiment concerns the target Butyrylcholinesterase (Rattus norvegicus, UniProt Q9JKC1).
The next experiment concerns the target T1, Acetylcholinesterase (Rattus norvegicus, UniProt P37136).
T1 sequence (P37136 whole entry): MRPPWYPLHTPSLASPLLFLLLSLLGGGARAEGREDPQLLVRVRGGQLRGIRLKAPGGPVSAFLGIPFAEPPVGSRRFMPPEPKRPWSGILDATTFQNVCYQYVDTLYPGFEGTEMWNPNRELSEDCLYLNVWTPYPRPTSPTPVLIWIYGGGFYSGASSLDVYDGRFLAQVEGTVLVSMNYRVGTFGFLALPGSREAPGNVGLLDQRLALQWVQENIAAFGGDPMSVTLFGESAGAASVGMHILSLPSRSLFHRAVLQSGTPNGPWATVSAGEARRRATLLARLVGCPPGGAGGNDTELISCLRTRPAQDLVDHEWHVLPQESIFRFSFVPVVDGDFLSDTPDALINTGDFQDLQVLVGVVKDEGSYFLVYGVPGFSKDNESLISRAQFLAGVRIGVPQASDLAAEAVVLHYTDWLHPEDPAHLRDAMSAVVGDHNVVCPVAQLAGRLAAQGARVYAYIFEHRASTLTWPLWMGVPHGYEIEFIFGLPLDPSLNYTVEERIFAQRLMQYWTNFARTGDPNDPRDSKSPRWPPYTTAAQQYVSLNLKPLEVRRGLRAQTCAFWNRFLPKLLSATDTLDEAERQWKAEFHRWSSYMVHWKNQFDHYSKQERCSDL

The structures appear in SMILES notation. pIC50: −log10 of the molar value.

Sequence of Butyrylcholinesterase (Q9JKC1 whole entry): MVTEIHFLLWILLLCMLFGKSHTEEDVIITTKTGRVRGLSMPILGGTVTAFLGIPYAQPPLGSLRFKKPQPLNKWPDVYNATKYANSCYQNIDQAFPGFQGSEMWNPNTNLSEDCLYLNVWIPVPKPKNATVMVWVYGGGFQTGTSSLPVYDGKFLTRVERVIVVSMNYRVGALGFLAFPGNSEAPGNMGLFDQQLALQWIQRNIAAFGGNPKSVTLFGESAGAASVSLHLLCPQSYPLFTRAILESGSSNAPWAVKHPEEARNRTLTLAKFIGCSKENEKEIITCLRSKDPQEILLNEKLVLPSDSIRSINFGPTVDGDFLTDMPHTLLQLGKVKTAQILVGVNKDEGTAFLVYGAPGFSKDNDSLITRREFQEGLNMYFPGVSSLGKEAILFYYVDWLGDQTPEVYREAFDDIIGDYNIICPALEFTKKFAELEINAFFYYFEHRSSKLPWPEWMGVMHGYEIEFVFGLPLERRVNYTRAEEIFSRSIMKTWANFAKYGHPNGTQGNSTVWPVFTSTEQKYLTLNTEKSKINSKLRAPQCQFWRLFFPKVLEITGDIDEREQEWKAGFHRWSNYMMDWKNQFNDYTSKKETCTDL
Description for Acetylcholinesterase: Inhibitory concentration against rat cortex Acetylcholinesterase
Description for Butyrylcholinesterase: Inhibitory concentration against rat serum Butyrylcholinesterase

As usually defined, the pIC50 is −log10 of the IC50, conventionally taken in molar units. Read a low pIC50 as a high IC50. `O=C(CNC1c2ccccc2-c2[nH]c3ccccc3c21)NCCC1CCN(Cc2ccccc2)CC1` (stereo not drawn) gave a negative-log IC50 (pIC50) on Butyrylcholinesterase of 4.75.

On to `O=C(CNC1CCc2ccccc21)NCCC1CCN(Cc2ccccc2)CC1` (stereo not drawn), for which the pIC50 against Acetylcholinesterase was 6.64; at Butyrylcholinesterase it was 5.16.

In the case of `O=C(CNc1c2c(nc3ccccc13)CCCC2)NCCC1CCN(c2ccccc2)CC1`, the pIC50 against Acetylcholinesterase is 8.22; against Butyrylcholinesterase, 7.12.

With `O=C(CNc1c2c(nc3ccccc13)CCCC2)NCC1CCN(c2ccccc2)CC1`, the negative logarithm of the IC50 (pIC50) against Butyrylcholinesterase was 7.91.

With `COc1ccc(C(=O)NCC(=O)NCCC2CCN(Cc3ccccc3)CC2)cc1OC`, the pIC50 against Acetylcholinesterase was 6.18; against Butyrylcholinesterase, 4.72.

The values are drawn from ChEMBL document CHEMBL1137830, “Synthesis and evaluation of tacrine-E2020 hybrids as acetylcholinesterase inhibitors for the treatment of Alzheimer's disease” (Bioorg Med Chem Lett, 2004).
